Patent US20230373985A1 (Origenis Gmbh, priority 2020, published 2023)

Assays:
[1] = molecular target: T1, wt human JAK1, catalytic site (Homo sapiens, UniProt P23458); assay: HTRF KinEASE assay, JAK1; assay type: biochemical; conditions: 2.5 μM ATP; read-out: IC50, Activity Toward JAK1
T1 construct: wt human JAK1, catalytic site; purchased ThermoFisher
Description: (§1) Basic protocol for HTRF KinEASE assay (Cisbio/FRA) inhibitor studies involved two steps: • Enzymatic step: Addition of 4 μL of test compound in corresponding DMSO dilutions, 4 μL of kinase/substrate mixture, 2 μL of ATP into 384 well small volume plates. Incubation for at least 30 minutes at room temperature. • Detection step: Addition of 5 μL antibody and 5 μL streptavidin-XL665, read plate after 60 minutes. Data analysis of emission ratios according KinEASE assay protocol.
(§2) Kinase and assay components were adjusted to final concentrations according to kit protocol. For TYK2: 2 nM wt human TYK2, catalytic site (SignalChem/CAN), 1 μM HTRF KinEASE-TK Substrate-biotin, 1 μM ATP in 1× Kinase Buffer. […] For JAK2: 1 nM wt human JAK2, catalytic site (SignalChem/CAN), 1 μM HTRF KinEASE-TK Substrate-biotin, 100 μM ATP in 1× Kinase Buffer.
as §2

[2] = molecular target: T2, wt human TYK2, catalytic site (Homo sapiens, UniProt P29597); assay: HTRF KinEASE assay, TYK2; assay type: biochemical; conditions: 1 μM ATP; read-out: IC50, Activity Toward TYK2
T2 construct: wt human TYK2, catalytic site; purchased SignalChem
T2 sequence (P29597 897-1176 limits assumed): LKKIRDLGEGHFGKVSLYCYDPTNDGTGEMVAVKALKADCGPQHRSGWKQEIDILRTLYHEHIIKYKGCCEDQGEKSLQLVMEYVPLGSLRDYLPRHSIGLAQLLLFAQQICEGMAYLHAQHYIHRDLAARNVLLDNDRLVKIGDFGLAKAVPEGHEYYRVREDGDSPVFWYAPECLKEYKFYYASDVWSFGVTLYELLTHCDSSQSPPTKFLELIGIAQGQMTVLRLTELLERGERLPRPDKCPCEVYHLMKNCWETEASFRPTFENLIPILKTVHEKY
Description: as §1
(§3) Kinase and assay components were adjusted to final concentrations according to kit protocol. For TYK2: 2 nM wt human TYK2, catalytic site (SignalChem/CAN), 1 μM HTRF KinEASE-TK Substrate-biotin, 1 μM ATP in 1× Kinase Buffer. For JAK1: 4 nM wt human JAK1, catalytic site (ThermoFisher/USA), 1 μM HTRF KinEASE-TK Substrate-biotin, 2.5 μM ATP in 1× Kinase Buffer. For JAK2: 1 nM wt human JAK2, catalytic site (SignalChem/CAN), 1 μM HTRF KinEASE-TK Substrate-biotin, 100 μM ATP in 1× Kinase Buffer.
as §3

T1 sequence (P23458 875-1153 limits assumed): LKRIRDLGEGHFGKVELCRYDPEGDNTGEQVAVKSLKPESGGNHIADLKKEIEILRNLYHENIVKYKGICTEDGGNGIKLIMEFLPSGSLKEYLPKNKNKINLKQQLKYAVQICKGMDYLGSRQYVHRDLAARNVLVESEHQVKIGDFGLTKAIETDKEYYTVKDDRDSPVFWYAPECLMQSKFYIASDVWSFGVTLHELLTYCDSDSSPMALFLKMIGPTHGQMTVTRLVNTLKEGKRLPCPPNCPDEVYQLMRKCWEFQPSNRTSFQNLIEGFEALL

Row | SMILES | IC50 [1] [nM] | IC50 [2] [nM]
1 | NC(=O)c1nn(-c2c(Cl)cccc2Cl)cc1Nc1ccc(-n2ccc(Cl)n2)cc1 [compound 76, 4-((4-(3-chloro-1H-pyrazol-1-yl)phenyl)amino)-1-(2,6-dichlorophenyl)-1H-pyrazole-3-carboxamide] | 100 to 1000 | –
2 | NC(=O)c1nn(-c2c(Cl)cccc2Cl)cc1Nc1ccc(C(=O)N2CCOCC2)nc1 [compound 365, 1-(2,6-dichlorophenyl)-4-((6-(morpholine-4-carbonyl)pyridin-3-yl)amino)-1H-pyrazole-3-carboxamide] | 10 to 100 | 10 to 100
3 | Cc1cnnn1-c1ccc(Nc2cn(-c3c(Cl)cccc3Cl)nc2C(N)=O)nc1 [compound 432, 1-(2,6-dichlorophenyl)-4-((5-(5-methyl-1H-1,2,3-triazol-1-yl)pyridin-2-yl)amino)-1H-pyrazole-3-carboxamide] | 10 to 100 | 100 to 1000
4 | CCc1cccnc1-c1ccc(Nc2cn(-c3c(Cl)cccc3Cl)nc2C(N)=O)cc1 [compound 234, 1-(2,6-dichlorophenyl)-4-((4-(3-ethylpyridin-2-yl)phenyl)amino)-1H-pyrazole-3-carboxamide] | 100 to 1000 | –
5 | CCc1cnncc1-c1ccc(Nc2cn(-c3c(Cl)cccc3Cl)nc2C(N)=O)cn1 [compound 351, 1-(2,6-dichlorophenyl)-4-((6-(5-ethylpyridazin-4-yl)pyridin-3-yl)amino)-1H-pyrazole-3-carboxamide] | 100 to 1000 | 10 to 100
6 | COCCCNC(=O)c1ccc(Nc2cn(-c3c(Cl)cccc3Cl)nc2C(N)=O)cc1 [compound 420, 1-(2,6-dichlorophenyl)-4-((4-((3-methoxypropyl)carbamoyl)phenyl)amino)-1H-pyrazole-3-carboxamide] | 100 to 1000 | 100 to 1000
7 | NC(=O)c1nn(-c2c(Cl)cccc2Cl)nc1Nc1ccc(C(=O)N2CC(O)C2)cn1 [compound 154, 2-(2,6-dichlorophenyl)-5-((5-(3-hydroxyazetidine-1-carbonyl)pyridin-2-yl)amino)-2H-1,2,3-triazole-4-carboxamide] | 10 to 100 | 10 to 100
8 | Cc1cccc2nnc(-c3ccc(Nc4nn(-c5c(Cl)cccc5Cl)nc4C(N)=O)cn3)n12 [compound 139, 2-(2,6-dichlorophenyl)-5-((6-(5-methyl-[1,2,4]triazolo[4,3-a]pyridin-3-yl)pyridin-3-yl)amino)-2H-1,2,3-triazole-4-carboxamide] | 10 to 100 | 100 to 1000
9 | NC(=O)c1nn(-c2c(Cl)cccc2Cl)cc1Nc1ccc(C(=O)N2CC(F)(F)C(F)(F)C2)cc1 [compound 254, 1-(2,6-dichlorophenyl)-4-((4-(3,3,4,4-tetrafluoropyrrolidine-1-carbonyl)phenyl)amino)-1H-pyrazole-3-carboxamide] | 10 to 100 | < 10
10 | NC(=O)c1nn(-c2c(Cl)cccc2Cl)nc1Nc1ccc(C(=O)N2CCSCC2)cc1 [compound 170, 2-(2,6-dichlorophenyl)-5-((4-(thiomorpholine-4-carbonyl)phenyl)amino)-2H-1,2,3-triazole-4-carboxamide] | < 10 | < 10
11 | CN1CCN(C(=O)c2cnc(Nc3cn(-c4c(Cl)cccc4Cl)nc3C(N)=O)cn2)CC1 [compound 402, 1-(2,6-dichlorophenyl)-4-((5-(4-methylpiperazine-1-carbonyl)pyrazin-2-yl)amino)-1H-pyrazole-3-carboxamide] | 100 to 1000 | 100 to 1000
12 | Cn1cnnc1-c1ccc(Nc2cn(-c3c(Cl)cccc3Cl)nc2C(N)=O)cn1 [compound 360, 1-(2,6-dichlorophenyl)-4-((6-(4-methyl-4H-1,2,4-triazol-3-yl)pyridin-3-yl)amino)-1H-pyrazole-3-carboxamide] | 100 to 1000 | 10 to 100
13 | COCCc1nc(C(F)(F)F)nn1-c1ccc(Nc2cn(-c3c(Cl)cccc3Cl)nc2C(N)=O)cc1 [compound 330, 1-(2,6-dichlorophenyl)-4-((4-(5-(2-methoxyethyl)-3-(trifluoromethyl)-1H-1,2,4-triazol-1-yl)phenyl)amino)-1H-pyrazole-3-carboxamide] | 10 to 100 | 10 to 100
14 | NC(=O)c1nn(-c2c(Cl)cccc2Cl)nc1Nc1cnn(CC(=O)N2CCS(=O)(=O)CC2)c1 [compound 174, 2-(2,6-dichlorophenyl)-5-((1-(2-(1,1-dioxidothiomorpholino)-2-oxoethyl)-1H-pyrazol-4-yl)amino)-2H-1,2,3-triazole-4-carboxamide] | < 10 | 10 to 100
15 | NC(=O)c1nn(-c2c(Cl)cccc2Cl)cc1Nc1ccc(C(=O)NC2CCCNC2)cc1 (centres unmarked) [compound 39, 1-(2,6-dichlorophenyl)-4-((4-(piperidin-3-ylcarbamoyl)phenyl)amino)-1H-pyrazole-3-carboxamide] | 10 to 100 | 100 to 1000
16 | CS(=O)(=O)n1cc(Nc2nn(-c3c(Cl)cccc3Cl)nc2C(N)=O)cn1 [Compound No. 172, 2-(2,6-dichlorophenyl)-5-((1-(methylsulfonyl)-1H-pyrazol-4-yl)amino)-2H-1,2,3-triazole-4-carboxamide] | 100 to 1000 | –
17 | NC(=O)c1nn(-c2c(Cl)cccc2Cl)cc1Nc1ccc(-n2nncc2C(F)(F)F)cn1 [compound 437, 1-(2,6-dichlorophenyl)-4-((5-(5-(trifluoromethyl)-1H-1,2,3-triazol-1-yl)pyridin-2-yl)amino)-1H-pyrazole-3-carboxamide] | 100 to 1000 | –
18 | NC(=O)c1nn(-c2c(Cl)cccc2Cl)cc1Nc1ccc(N2CCCC2=O)nc1 [compound 345, 1-(2,6-dichlorophenyl)-4-((6-(2-oxopyrrolidin-1-yl)pyridin-3-yl)amino)-1H-pyrazole-3-carboxamide] | – | 100 to 1000
19 | Cc1cn(-c2ccc(Nc3cn(-c4c(Cl)cccc4Cl)nc3C(N)=O)cc2)nc1C [compound 217, 1-(2,6-dichlorophenyl)-4-((4-(3,4-dimethyl-1H-pyrazol-1-yl)phenyl)amino)-1H-pyrazole-3-carboxamide] | 100 to 1000 | –
20 | NC(=O)c1nn(-c2c(Cl)cccc2Cl)nc1Nc1ccc(-n2nncc2C(F)(F)F)cc1 [compound 155, 2-(2,6-dichlorophenyl)-5-((4-(5-(trifluoromethyl)-1H-1,2,3-triazol-1-yl)phenyl)amino)-2H-1,2,3-triazole-4-carboxamide] | 10 to 100 | –
21 | NC(=O)c1nn(-c2c(Cl)cccc2Cl)cc1Nc1ccccc1 [compound 21, 1-(2,6-dichlorophenyl)-4-(phenylamino)-1H-pyrazole-3-carboxamide] | – | 100 to 1000
22 | Cc1cccc2nnc(-c3ccc(Nc4cn(-c5c(Cl)cc(F)cc5Cl)nc4C(N)=O)cn3)n12 [compound 477, 1-(2,6-dichloro-4-fluorophenyl)-4-((6-(5-methyl-[1,2,4]triazolo[4,3-a]pyridin-3-yl)pyridin-3-yl)amino)-1H-pyrazole-3-carboxamide] | – | 10 to 100
23 | CCNC(=O)c1ccc(Nc2cn(-c3c(F)cccc3OC)nc2C(N)=O)cn1 [compound 25, 5-((3-carbamoyl-1-(2-fluoro-6-methoxyphenyl)-1H-pyrazol-4-yl)amino)-N-ethylpicolinamide] | – | 100 to 1000
24 | CCn1nc(C(F)(F)F)nc1-c1ccc(Nc2cn(-c3c(F)cccc3Cl)nc2C(N)=O)cc1 [compound 289, 1-(2-chloro-6-fluorophenyl)-4-((4-(1-ethyl-3-(trifluoromethyl)-1H-1,2,4-triazol-5-yl)phenyl)amino)-1H-pyrazole-3-carboxamide] | – | 100 to 1000
25 | NC(=O)c1nn(-c2c(Cl)cccc2Cl)cc1Nc1ccc(-c2nc(C(F)(F)F)cn2C2COC2)cc1 [compound 301, 1-(2,6-dichlorophenyl)-4-((4-(1-(oxetan-3-yl)-4-(trifluoromethyl)-1H-imidazol-2-yl)phenyl)amino)-1H-pyrazole-3-carboxamide] | – | < 10
26 | CCc1c(C)nn(-c2ccc(Nc3cn(-c4c(Cl)cccc4Cl)nc3C(N)=O)cc2)c1C [compound 222, 1-(2,6-dichlorophenyl)-4-((4-(4-ethyl-3,5-dimethyl-1H-pyrazol-1-yl)phenyl)amino)-1H-pyrazole-3-carboxamide] | 100 to 1000 | –
27 | CCc1nc(C(F)(F)F)nn1-c1ccc(Nc2nn(-c3c(Cl)cccc3Cl)nc2C(N)=O)cc1 [compound 121] | 100 to 1000 | –
28 | NC(=O)c1nn(-c2c(Cl)cccc2Cl)cc1Nc1ccc(-n2c(=O)sc3ccccc32)cc1 [compound 201, 1-(2,6-dichlorophenyl)-4-((4-(2-oxobenzo[d]thiazol-3(2H)-yl)phenyl)amino)-1H-pyrazole-3-carboxamide] | – | 100 to 1000
